Reference: patent publication US20080051463A1, “ANTHRACENE COMPOUNDS AND THEIR USE FOR TREATING BENIGN AND MALIGNANT TUMOR DISORDERS” (AETERNA ZENTARIS GmbH, priority 2006, published 2008)
Values after ≈ are worked out from the molar mass of the structure shown. Values joined by “and” are separate entries in the source; they are usually repeats but may differ in a detail not shown here. Equal entries are not always repeated.

Assays:
[1] = target: T1, Eg513-437 (Homo sapiens, UniProt P52732); test: Inhibition of kinesin Eg5 activity, recombinant Eg513-437; assay type: biochemical; details: recombinant Eg513-437 (Table 4)
T1 construct: read as Eg5 residues 13-437
T1 sequence (P52732 1-1056): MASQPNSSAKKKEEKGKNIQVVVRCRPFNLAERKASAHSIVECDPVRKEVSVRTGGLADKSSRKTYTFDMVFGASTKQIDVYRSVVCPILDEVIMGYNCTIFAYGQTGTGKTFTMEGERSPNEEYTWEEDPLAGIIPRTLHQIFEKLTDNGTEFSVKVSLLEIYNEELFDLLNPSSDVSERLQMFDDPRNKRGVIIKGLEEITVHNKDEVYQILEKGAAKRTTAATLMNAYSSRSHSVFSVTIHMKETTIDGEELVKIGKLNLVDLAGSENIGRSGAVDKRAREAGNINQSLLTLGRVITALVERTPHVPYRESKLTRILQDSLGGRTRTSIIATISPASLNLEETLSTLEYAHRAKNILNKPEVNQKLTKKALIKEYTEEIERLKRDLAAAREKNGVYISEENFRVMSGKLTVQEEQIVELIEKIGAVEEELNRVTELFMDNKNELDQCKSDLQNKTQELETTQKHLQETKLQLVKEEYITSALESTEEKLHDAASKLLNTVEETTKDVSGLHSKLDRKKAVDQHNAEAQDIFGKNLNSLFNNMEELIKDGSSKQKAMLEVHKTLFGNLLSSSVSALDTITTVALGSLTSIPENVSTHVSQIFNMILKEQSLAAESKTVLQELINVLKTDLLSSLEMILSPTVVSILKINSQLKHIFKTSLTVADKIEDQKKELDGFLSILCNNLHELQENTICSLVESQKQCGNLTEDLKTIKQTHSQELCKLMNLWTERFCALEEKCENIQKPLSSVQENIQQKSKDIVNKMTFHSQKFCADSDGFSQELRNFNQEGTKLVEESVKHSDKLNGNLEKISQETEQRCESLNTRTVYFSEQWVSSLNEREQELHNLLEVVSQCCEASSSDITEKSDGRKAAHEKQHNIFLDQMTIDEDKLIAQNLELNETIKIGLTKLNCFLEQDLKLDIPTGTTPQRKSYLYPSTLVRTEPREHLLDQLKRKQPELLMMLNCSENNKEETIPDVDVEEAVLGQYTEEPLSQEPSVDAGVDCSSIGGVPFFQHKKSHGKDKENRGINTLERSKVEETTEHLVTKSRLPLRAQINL
Description: (§1) In an in vitro test, compound 1 was examined for inhibition of Eg5 activity [Kodama, T. et al. J. Biochem. 99: 1465-1472 (1986)].
(§2) Here, the recombinant kinesins Eg513-437 (Table 3) and Eg51-406 (Table 4) were used.
(§3) Tables 4 and 5 state the EC50 values of Eg5 inhibition for the compound 1 according to the invention.

[2] = tested on: human cervical carcinoma cell line KB/HeLa; test: Proliferation test (cellular dehydrogenase activity), KB/HeLa; assay type: cell-based
Description: (§4) The antiproliferative activity of the compounds 1, 2, 4, 6, 7, 9, 10, 11, 12 and 13 according to the invention was investigated in a proliferation test performed on established tumor cell lines (D. A. Scuderio et al. Cancer Res. 1988, 48: 4827-4833).
(§5) The test used determines the cellular dehydrogenase activity and makes it possible to determine cell viability and determine cell number indirectly.
(§6) The cell lines used are the human cervical carcinoma cell line KB/HeLa (ATCC CCL17), the ovarian adenocarcinoma cell line SKOV-3 (ATCC HTB77), the human glioblastoma cell line SF-268 (NCI-503138) and the lung carcinoma cell line NCI-H460 (NCI-503473). In addition, an RKOp27 cell system was used for investigating the cell cycle-specific effect of the substance (M. Schmidt et al. Oncogene 2000, 19(20): 2423-9).

[3] = tested on: ovarian adenocarcinoma cell line SKOV-3; test: Proliferation test (cellular dehydrogenase activity), SK-OV-3; assay type: cell-based; details: Homo sapiens
Description: as §4, §5, §6

[4] = target: T2, Eg51-406 (Homo sapiens, UniProt P52732); test: Inhibition of kinesin Eg5 activity, recombinant Eg51-406; assay type: biochemical; details: recombinant Eg51-406 (Table 5)
T2 construct: read as Eg5 residues 1-406
T2 sequence (P52732 1-1056): T1 sequence (P52732 1-1056)
Description: as §1, §2, §3

- EC50 [1]: 6.92 µM and 7.24 µM and 5.46 µM and 5.9 µM
- EC50 [2]: 0.091 µg/mL (≈ 0.266 µM)
- EC50 [3]: 0.053 µg/mL (≈ 0.155 µM)
- EC50 [4]: 37.1 µM
Structure (SMILES): O=C(C=C1c2ccccc2C(=O)c2ccccc21)c1ccc(O)c(O)c1 [Compound 1, 10-[2-(3,4-dihydroxy-phenyl)-2-oxo-ethylidene]-10H-anthracen-9-one]
